Measurements published in US6524556B2, “Aerosol compositions” (Fujisawa Pharmaceutical Co., Ltd., priority 1995, dated 2003).

Assays:
Assay type in all cases: physicochemical
[1] = Effect of MCT content on the solubility of FK506 in HFAs; design: key to Solubility of FK506 in HFAs (solution or suspension): ∘: solution; —: suspension
Description: The addition of MCT enables the filling of FK506 as a solution into aerosol system. As a result, the change of spray performance will not be caused by aggregation of FK506 crystalline particles and the emitted dose uniformity of FK506 can be more reliable. The aerosol compositions used in this study were prepared according to a similar manner to that of Example 2.

[2] = Aerodynamic particle size distribution (USP23 Apparatus 1, multistage cascade impactor); settings: for Mass Median Aerodynamic Diameter: 0.05% FK506 aerosol composition
Description: Aerodynamic Particle Size Distribution According to the conventional method in USP23 (Apparatus 1), the aerodynamic particle size distribution was assessed from FK506 amount in each stage after applying one mg FK506 to multistage cascade impactor by firing FK506 aerosol composition. FK506 measurement was conducted by HPLC method and the MMAD was calculated from the particle size distribution. The FK506 aerosol compositions were prepared according to a similar manner to that of the below-mentioned Example 2.

[3] = Dissolution test of mist particles (JP12 paddle method); settings: for T 50% (dissolution rate of FK506): distilled water 37° C., paddle 50 rpm
Description: Dissolution Test FK506 dissolution from the mist particles after firing FK506 aerosol composition was examined in distilled water at 37° C. using the paddle method at 50 rpm, according to the dissolution test method in JP12. The emitted dose from aerosol composition was adjusted to be one mg FK506 as a total in the test fluid. FK506 was measured by HPLC method. The FK506 aerosol compositions were prepared according to a similar manner to that of Example 2.

Compound: C=CC[C@@H]1/C=C(\C)C[C@H](C)C[C@H](OC)[C@H]2O[C@@](O)(C(=O)C(=O)N3CCCC[C@H]3C(=O)O[C@H](/C(C)=C/[C@@H]3CC[C@@H](O)[C@H](OC)C3)[C@H](C)[C@@H](O)CC1=O)[C@H](C)C[C@@H]2OC [FK506, 17-allyl-1,14-dihydroxy-12-[2-(4-hydroxy-3-methoxycyclohexyl)-1-methylvinyl]-23,25-dimethoxy-13,19,21,27-tetramethyl-11,28-dioxa-4-azatricyclo-[22.3.1.0^4,9]octacos-18-ene-2,3,10,16-tetraone]
- Solubility of FK506 in HFAs (solution or suspension) ([1]; MCT content 0.05%, FK506 content 0.05 w/v % in HFA-134a): ∘
- Solubility of FK506 in HFAs (solution or suspension) ([1]; MCT content 0.05%, FK506 content 0.05 w/v % in HFA-227): ∘
- Solubility of FK506 in HFAs (solution or suspension) ([1]; MCT content 0.05%, FK506 content 0.1 w/v % in HFA-227): —
- Solubility of FK506 in HFAs (solution or suspension) ([1]; MCT content 0.05%, FK506 content 0.2 w/v % in HFA-134a): —
- Solubility of FK506 in HFAs (solution or suspension) ([1]; MCT content 0.05%, FK506 content 0.2 w/v % in HFA-227): —
- Solubility of FK506 in HFAs (solution or suspension) ([1]; MCT content 0.05%, FK506 content 0.5 w/v % in HFA-227): —
- Solubility of FK506 in HFAs (solution or suspension) ([1]; MCT content 0.5%, FK506 content 0.05 w/v % in HFA-134a): ∘
- Solubility of FK506 in HFAs (solution or suspension) ([1]; MCT content 0.5%, FK506 content 0.05 w/v % in HFA-227): ∘
- Solubility of FK506 in HFAs (solution or suspension) ([1]; MCT content 0.5%, FK506 content 0.1 w/v % in HFA-227): ∘
- Solubility of FK506 in HFAs (solution or suspension) ([1]; MCT content 0.5%, FK506 content 0.2 w/v % in HFA-134a): —
- Solubility of FK506 in HFAs (solution or suspension) ([1]; MCT content 0.5%, FK506 content 0.2 w/v % in HFA-227): —
- Solubility of FK506 in HFAs (solution or suspension) ([1]; MCT content 0.5%, FK506 content 0.5 w/v % in HFA-227): —
- Solubility of FK506 in HFAs (solution or suspension) ([1]; MCT content 2%, FK506 content 0.05 w/v % in HFA-134a): ∘
- Solubility of FK506 in HFAs (solution or suspension) ([1]; MCT content 2%, FK506 content 0.05 w/v % in HFA-227): ∘
- Solubility of FK506 in HFAs (solution or suspension) ([1]; MCT content 2%, FK506 content 0.1 w/v % in HFA-227): ∘
- Solubility of FK506 in HFAs (solution or suspension) ([1]; MCT content 2%, FK506 content 0.2 w/v % in HFA-134a): ∘
- Solubility of FK506 in HFAs (solution or suspension) ([1]; MCT content 2%, FK506 content 0.2 w/v % in HFA-227): ∘
- Solubility of FK506 in HFAs (solution or suspension) ([1]; MCT content 2%, FK506 content 0.5 w/v % in HFA-227): —
- Solubility of FK506 in HFAs (solution or suspension) ([1]; MCT content 5%, FK506 content 0.05 w/v % in HFA-134a): ∘
- Solubility of FK506 in HFAs (solution or suspension) ([1]; MCT content 5%, FK506 content 0.05 w/v % in HFA-227): ∘
- Solubility of FK506 in HFAs (solution or suspension) ([1]; MCT content 5%, FK506 content 0.1 w/v % in HFA-227): ∘
- Solubility of FK506 in HFAs (solution or suspension) ([1]; MCT content 5%, FK506 content 0.2 w/v % in HFA-134a): ∘
- Solubility of FK506 in HFAs (solution or suspension) ([1]; MCT content 5%, FK506 content 0.2 w/v % in HFA-227): ∘
- Solubility of FK506 in HFAs (solution or suspension) ([1]; MCT content 5%, FK506 content 0.5 w/v % in HFA-227): —
- Solubility of FK506 (change) ([1]; by mixing MCT into liquefied hydrofluoroalkanes): increased up
- Mass Median Aerodynamic Diameter ([2]; propellant HFA-134a, MCT content 0.5%): 1.6 μm
- Mass Median Aerodynamic Diameter ([2]; propellant HFA-227, MCT content 0.05%): 1.5 μm
- Mass Median Aerodynamic Diameter ([2]; propellant HFA-227, MCT content 0.5%): 1.7 μm
- Mass Median Aerodynamic Diameter ([2]; propellant HFA-227, MCT content 1%): 2.5 μm
- Mass Median Aerodynamic Diameter ([2]; propellant HFA-227, MCT content 2%): 3.1 μm
- Mass Median Aerodynamic Diameter ([2]; propellant HFA-227, MCT content 5%): 4.0 μm
- Mass median aerodynamic diameter (MMAD), trend ([2]; FK506 aerosol composition, addition of MCT): increased in proportion to MCT amount added
- T 50% (dissolution rate of FK506) ([3]; HFA-134a, MCT content 0.5%, FK506 0.05%): 29 min
- T 50% (dissolution rate of FK506) ([3]; HFA-134a, MCT content 0.5%, FK506 0.2%): 11 min
- T 50% (dissolution rate of FK506) ([3]; HFA-134a, MCT content 2%, FK506 0.05%): 41 min
- T 50% (dissolution rate of FK506) ([3]; HFA-134a, MCT content 2%, FK506 0.2%): 25 min
- T 50% (dissolution rate of FK506) ([3]; HFA-227, MCT content 0%, FK506 0.05%): 5 min
- T 50% (dissolution rate of FK506) ([3]; HFA-227, MCT content 0%, FK506 0.2%): 9 min
- T 50% (dissolution rate of FK506) ([3]; HFA-227, MCT content 0.5%, FK506 0.05%): 30 min
- T 50% (dissolution rate of FK506) ([3]; HFA-227, MCT content 0.5%, FK506 0.2%): 12 min
- T 50% (dissolution rate of FK506) ([3]; HFA-227, MCT content 1%, FK506 0.05%): 38 min
- T 50% (dissolution rate of FK506) ([3]; HFA-227, MCT content 1%, FK506 0.2%): 15 min
- T 50% (dissolution rate of FK506) ([3]; HFA-227, MCT content 2%, FK506 0.05%): 43 min
- T 50% (dissolution rate of FK506) ([3]; HFA-227, MCT content 2%, FK506 0.2%): 28 min
- T 50% (dissolution rate of FK506) ([3]; HFA-227, MCT content 5%, FK506 0.05%): 51 min
- T 50% (dissolution rate of FK506) ([3]; HFA-227, MCT content 5%, FK506 0.2%): 37 min
- Release rate of FK506 from the mist particles, trend ([3]; addition of MCT): declined with addition of MCT
